Test results as given in US6500794B1, “Granulated bleaching activator” (Kao Corporation, priority 1999, dated 2002).

Assay: Solubility of component (a) in aqueous nonionic surfactant solution, requirements (1) and (2)
Format: physicochemical
Conditions: 10° C., stirred five minutes; for solubility of the component (a), Condition (2): 0.1 g component (a) (A-1) in 0.25 g nonionic surfactant / 500 ml water; for solubility of the component (a), Condition (1): 0.1 g component (a) (A-1) in 10 g nonionic surfactant / 500 ml water
Description: (1) when 0.1 g of the component (a) is added to an aqueous solution produced by dissolving 10 g of the component (b1) in 500 ml of water at 10° C. and the mixture was stirred for five minutes, the solubility of the component (a) just after the stirring is 50% by weight or more; and
Herein, the solubility was measured using the following method.
Method for Measuring Solubility
1 l glass beaker (cylinder type; inside diameter: 105 mm, height: 15 cm) was charged with 500 ml of an aqueous solution in which the component (b1) was dissolved in an amount corresponding to the requirements (1) and (2) and the solution was stirred (using a magnetic stirrer; a cylindrical stirrer piece with a diameter of 15 mm and a length of 52 mm, 200 rpm) in a thermostat kept at 10° C. At the stage in which the temperature of the solution reached 10° C., the powdery component (a) having a bulk density of […] and containing 10% by weight or less of particles with a grain size of 125 μm was added thereto in a prescribed amount and then the solution was stirred for 5 minutes. Thereafter, the solution was filtered through a membrane filter (Cellulose Nitrate A045A047A, 0.47 μm, manufactured by […]) and the content of the component (a) in the filtrate was determined by using high performance liquid chromatography to determine the solubility by the following formula. [formula]
Granulated Bleaching activator having the compositions shown in Table 2 were prepared by using the bleaching activator A-1 and nonionic surfactants B-1 and B-2 described below according to the method described below. Also, granulated bleaching activators were prepared in the same manner as above by using B′-1, B′-2 and B′-3 as comparative nonionic surfactants. Each solubility of these nonionic surfactants in the conditions (1) and (2) are shown below.

| solubility of the component (a), Condition (2) | solubility of the component (a), Condition (1) | Substance |
| --- | --- | --- |
| 7% | 79% | C12H25O—(EO)5—(PO)2—(EO)5—H [Example B-1] |
| 32% | 82% | C12H25O—(EO)7—H [B′-1] |
| 0.5% | 81% | C12H25O—(EO)10—(PO)4—H [Example B-2] |
| 3% | 46% | C12H25O—(EO)15—H [B′-3] |
